Measurements taken from patent US20220347299A1, “FLUORESCENT SYSTEMS FOR BIOLOGICAL IMAGING AND USES THEREOF” (LIGHTOX LIMITED, priority 2019, published 2022).

Experiments:
[1] = Peak absorption and fluorescence emission wavelengths in solvents; format: physicochemical; conditions: for λem(max)/nm: 100 nM, excitation at peak of absorption; for λabs(max)/nm: 10 μM
Description: Peak absorption and fluorescence emission wavelengths of compounds 6, 7, 12, 13, 14, 15, 19, 23, 27, 30 and 34 were measured in a variety of solvents, and the results are shown in Table 1. Absorption measurements were recorded at a concentration of 10 μM, and emission measurements were recorded at a concentration of 100 nM. Emission spectra were recorded with excitation at the peak of absorption (S0→S1).

black-grass cells = assay: Cytotoxicity assay (FDA/PI) in black-grass cell suspension culture; format: cell-based
Description: 5 mL of black-grass cell suspension culture was treated with 0.1, 1, 5, and 10 μM of compound numbers 7, 14, 12 and 15 for 1 hour at room temperature. Cells treated with 0.1% DMSO were used as a control. Cells were irradiated (˜365 nm) for 5 minutes before being incubated at 25° C., 150 rpm for 24 hours. In addition, the cytotoxicity of the compounds without irradiation was also assessed. Cell viability of five biological replicates for each concentration were determined via fluorescence assay (FDA/PI) assay. Percentage of cell viability was calculated using following formulation:
% viability={live cells (FDA)/(live cells+dead cells)}×100
The statistical analysis of percentage of cell viability was performed through one-way analysis of variance (ANOVA) followed by Tukey HSD posthoc test using SPSS 23 (IBM, Chicago, Ill., USA).

Mycobacterium smegmatis = assay: Overnight growth curve (OD 600 nm) cytotoxicity assay, M. smegmatis; format: cell-based
Description: A sample of M. smegmatis was taken from a plate culture and inoculated into Middlebrook 7H9 broth containing an added Middlebrook ADC growth supplement to culture overnight at 37° C. for approximately 16 hours.
Samples were incubated in darkness at room temperature for approximately 2 hrs. A black clear bottom Costar™-96 well plate was then filled, with 200 μl of sample in each well Cells were irradiated for 5 minutes at approximately 15 mW/cm^2. The cytotoxicity of the compounds without irradiation was also assessed.
The 96 well plate was put into the plate reader and set up to run a growth curve protocol using the following parameters: • Incubation temperature: 37° C. • OD read wavelength 600 nm • 250 cycles, readings every 5 rains • Shaking for 5 s pre-reading
This was left to run overnight to obtain kinetic growth curves based on optical density readings.

Bacillus subtilis [2] = assay: Overnight growth curve (OD 600 nm) cytotoxicity assay, B. subtilis; format: cell-based
Description: A sample of B. subtilis was taken from a plate culture and inoculated into Luria Broth to culture overnight at 37° C. for approximately 16 hours. [table] Samples were incubated in darkness at room temperature for approximately 2 hrs. A black clear bottom Costar™-96 well plate was then filled, with 200 μl of sample in each well Cells were irradiated for 5 minutes at approximately 15 mW/cm^2. The cytotoxicity of the compounds without irradiation was also assessed. The 96 well plate was put into the plate reader and set up to run a growth curve protocol using the following parameters: • Incubation temperature: 37° C. • OD read wavelength 600 nm • 250 cycles, readings every 5 rains • Shaking for 5 s pre-reading This was left to run overnight to obtain kinetic growth curves based on optical density readings.

Bacillus subtilis [3] = assay: Baclight staining (propidium iodide / Syto 9), widefield imaging, B. subtilis; format: cell-based; conditions: 1 μM, 405 nm, 5 min
Description: Samples prepared according to Table 9 were treated with compounds by diluting 10 mM of stock solution in media to make a 100 μM concentration. This solution was then further diluted 1:10 and 1:100 in media to make 10 μM and 1 μM media solutions containing the compound. 50 μl of cell culture were then added to the 100 μM, 10 μM and 1 μM compound-containing media preparations. Following the treatment outlined in Table 9, each of the three bacterial strains were stained using a Baclight™ staining kit containing separate solutions of Syto™ 9 and Propidium Iodide. One extra sample treated with 0.1 μM of each compound was also included in this assay. M. smegmatis, S. epidermis and B. subtilis were stained with propidium iodide to show non-viable cells and with Syto 9 to show all cells. The following staining procedure was used: • 1. 1 ml of each sample was eluted into a well of a 12-well plate; • 2. One half of the 12 well plate was irradiated at approximately 15 mW/cm^2 for 5 mins; • 3. The content of each well was eluted into separate Eppendorfs and centrifuged at 10,000 r.p.m for 3 rains to form a culture pellet; • 4. Media was then removed, and each pellet resuspended in 200 μl of 1× PBS before being centrifuged at 10,000 r.p.m. for 3 mins. • 5. A preparation of Baclight™-staining solution was made using 1 ml 1× PBS, 3 μl propidium iodide and 3 μl Syto™ 9; • 6. […]

COC(=O)/C=C/c1ccc(C#Cc2ccc(N(C)CCN)cc2)cc1 [Compound 12, methyl (2E)-3-[4-(2-{4-[(2-aminoethyl)(methyl)amino]phenyl}ethynyl)phenyl]prop-2-enoate]
λem(max)/nm ([1]; DCM): 551 nm | λabs(max)/nm ([1]; DCM): 371 nm | λem(max)/nm ([1]; Toluene): 482 nm | λabs(max)/nm ([1]; Toluene): 380 nm | black-grass cell viability (black-grass cells; 5 μM and 10 μM, after ~365 nm irradiation): significantly reduced | dependence of cytotoxic effect on irradiation (black-grass cells; black-grass cells, ~365 nm, 5 minutes): only observed after irradiation | growth of M. smegmatis, radiated samples (Mycobacterium smegmatis; 100 μM, 405 nm, 5 min, approximately 15 mW/cm^2): begin to indicate some cytotoxicity | growth of M. smegmatis, no photoactivation (Mycobacterium smegmatis; 1-100 μM, not irradiated): no significant difference between the treated and untreated controls | growth of B. subtilis, non-irradiated (Bacillus subtilis [2]; 1 μM, not irradiated): slightly less growth than the untreated samples as well as an increased lag time | growth of B. subtilis (Bacillus subtilis [2]; 100 μM and 10 μM, with or without photoactivation): no growth is observed regardless of any photoactivation | cytotoxicity in B. subtilis compared with compound 6 (Bacillus subtilis [2]; 10 and 1 μM): more cytotoxicity | proportion of non-viable (red) cells following irradiation compared to non-irradiated sample (Bacillus subtilis [3]): the proportion of non-viable (red) cells is increased
